Here are results for seven molecules from publication PMC6013267 (Medicinal chemistry research : an international journal for …, 2018).

Experiment [1] relates to Aβ plaques. Description: [3H]PIB competition autoradiography in postmortem human AD frontal cortex slices. The experiment is classed as binding. Conditions: for displacement of [3H]PIB (words, discussion): concentration not restated.
For experiment [2], the target named is α4β2* nAChRs (Rattus norvegicus, UniProt P09483+P12390). Particulars: 100 nM drug; rat brain slices.
Sequence of α4β2* nAChRs (P09483 31-630): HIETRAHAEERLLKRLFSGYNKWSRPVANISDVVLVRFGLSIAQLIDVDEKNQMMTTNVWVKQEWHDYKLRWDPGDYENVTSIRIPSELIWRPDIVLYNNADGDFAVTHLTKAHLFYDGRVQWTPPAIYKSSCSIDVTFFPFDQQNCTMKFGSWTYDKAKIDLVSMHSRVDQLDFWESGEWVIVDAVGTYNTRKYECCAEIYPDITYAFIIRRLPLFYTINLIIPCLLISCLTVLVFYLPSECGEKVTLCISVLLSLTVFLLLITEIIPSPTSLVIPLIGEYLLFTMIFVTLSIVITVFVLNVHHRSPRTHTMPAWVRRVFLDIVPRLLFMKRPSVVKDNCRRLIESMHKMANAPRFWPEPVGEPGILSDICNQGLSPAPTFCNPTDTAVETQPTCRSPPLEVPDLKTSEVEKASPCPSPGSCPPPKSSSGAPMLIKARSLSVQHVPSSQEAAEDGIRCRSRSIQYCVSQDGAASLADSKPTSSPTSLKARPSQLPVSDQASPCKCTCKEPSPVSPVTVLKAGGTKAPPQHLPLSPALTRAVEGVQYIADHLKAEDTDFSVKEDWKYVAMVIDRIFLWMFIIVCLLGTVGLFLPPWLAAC
Sequence of α4β2* nAChRs (P12390 25-500): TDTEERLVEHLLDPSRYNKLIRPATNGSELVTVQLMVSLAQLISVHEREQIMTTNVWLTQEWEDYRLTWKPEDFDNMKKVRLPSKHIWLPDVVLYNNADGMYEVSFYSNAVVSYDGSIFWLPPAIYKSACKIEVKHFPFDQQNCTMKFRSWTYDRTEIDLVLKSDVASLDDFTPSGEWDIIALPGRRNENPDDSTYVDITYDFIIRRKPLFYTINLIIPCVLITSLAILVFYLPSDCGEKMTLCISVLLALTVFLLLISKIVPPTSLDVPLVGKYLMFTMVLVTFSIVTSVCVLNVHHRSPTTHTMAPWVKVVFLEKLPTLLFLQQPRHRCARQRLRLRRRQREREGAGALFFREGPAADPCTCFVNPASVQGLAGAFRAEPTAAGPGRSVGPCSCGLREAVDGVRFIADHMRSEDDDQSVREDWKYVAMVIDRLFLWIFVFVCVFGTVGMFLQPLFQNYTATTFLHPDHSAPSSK
The test system of experiment [3] is amyloid β. Particulars: ref Salloway et al. 2014, Doody et al. 2014, Siemers et al. 2016, cited from earlier work.
[4] abbreviates: 10 μM drug, control GM/WM approx. 3.

With `CNc1ccc(N=Nc2ccc(N(C)C)cc2)cc1` [TAZA, 4-methylamino-4'-N,N-dimethylaminoazobenzene], in experiment [1] (1 μM drug), the “effect on [3H]PIB binding” value was “significant displacement of [^3H]PIB”. In addition, the “displacement of [3H]PIB (words, discussion)” value (“displacement of [3H]PIB” for short) in experiment [1] is given as “greater than observed by CUR”.

With “FEX-(3-methoxy-4-(1′-aminobutyryloxy)cinnamic acid [KD-003]”, the “[3H]PIB levels in GM and WM” value in experiment [1] (10 μM drug) is “higher levels of [^3H]PIB”. For the same molecule, the “GM/WM ratio of [3H]PIB binding” value in experiment [1] (setting [4]) was 2.4.

For “5-(3-methoxy-4-propyloxycinnamate)-3-(2-(S)-pyrrolidinylmethoxy)pyridine [GKS-007]”, the “effect on [3H]PIB binding” value in experiment [1] (1 μM drug) is reported as “some inhibitory effect”. For the same molecule, the “GM/WM ratio of [3H]PIB binding” value in experiment [1] (1 μM drug, control GM/WM ~2) is “no significant GM/WM ratio reduction”. Also, in experiment [2], the “displacement of [3H]cytisine” value is on record as “Displacement of significant amounts”.

In the case of “5-(3′-Ethyl 3-methoxy-4-propyloxycinnamate)-3-(2-(S)-pyrrolidinylmethoxy)pyridine [GKS-006]”, in experiment [2], the “displacement of [3H]cytisine” value was “Displacement of significant amounts”.

For `COc1cc(/C=C/C(=O)O)ccc1O` [FA, ferulic acid], in experiment [1] (1 μM drug), the “effect on [3H]PIB binding” value was “did not significantly affect the binding of [^3H]PIB”. The “GM/WM ratio of [3H]PIB binding” value is on record as ~ 2 in experiment [1] (1 μM drug, control GM/WM ~2) and 2 in experiment [1] (setting [4]). For the same molecule, in experiment [1] (10 μM drug), the “[3H]PIB levels in GM and WM” value is “higher levels of [^3H]PIB”. Moreover, in experiment [1], the “displacement of [3H]PIB” value was “little displacement”.

Turning to `COc1cc(/C=C/C(=O)CC(=O)/C=C/c2ccc(O)c(OC)c2)ccc1O` [CUR, curcumin], the “reduction in GM/WM [3H]PIB binding” value in experiment [1] (10 μM drug) was 50%. In experiment [1] (setting [4]), the “GM/WM ratio of [3H]PIB binding” value was found to be 1.5. In experiment [1], the “displacement of [3H]PIB” value is given as “significant displacement effect”.

“solanezumab: Anti-amyloid β monoclonal antibody”: in experiment [3] (mild to moderate AD), the clinical outcome was “Did not improve clinical outcomes. Trials continue in early stage of disease”. The “Aβ plaque load (measured by PET imaging) before and after antibody treatment” value in experiment [3] is recorded as “did not change significantly”.
